Assay results as given in US6514961B1, “Azetidinecarboxamide derivatives for the treatment of CNS disorders” (Vernalis Research Limited, priority 1998, dated 2003).

What was measured:
[1] = system: anxiety (elevated zero-maze); assay: Elevated zero-maze model of anxiolytic activity; assay type: in vivo, rats; settings: dose of 30 mg/Kg, orally 1 hour prior to zero-maze testing
Excerpt: Measurement of Anxiolytic Activity in Mice Using the Elevated Zero-maze Model
The elevated “zero-maze” is a modification of the elevated plus-maze model of anxiety which incorporates both traditional and novel ethological measures in the analysis of drug effects (Shepherd, J. K., Grewal, S. S., Fletcher, A., Bill, D. J. and Dourish, C. T., Behavioural and pharmacological characterisation of the elevated “zero-maze” as an animal model of anxiety. Psychopharmacology, 1994, 116, 56-64).
Male Sprague-Dawley rats (Charles River) weighing 300-450 gm are used. Animals are group-housed (5 per cage; cage size: 40×40×20 cm) in a temperature-controlled environment (20±2° C.), under a 12 h light-dark cycle (lights on: 08:00 hours). Food and water are made freely available. Four hours prior to testing, animals are transferred to clean cages and moved to the testing room in order to habituate to the testing environment.
The maze is comprised of a black Perspex annular platform (105 cm diameter, 10 cm width) elevated to 65 cm above ground level, divided equally into four quadrants. […]
Rats are placed on a closed quadrant and a 5 min test period is recorded on video-tape. […] Animals are scored as being in the open area when all four paws were in an open quadrant, and in the closed area only when all four paws passed over the open/closed divide. […]

Solubility measurement = assay type: physicochemical
3-MPA-induced seizures = assay: Antagonism of 3-MPA-induced seizures; assay type: in vivo; settings: male T/O mice; test drug 30 ng/kg p.o. 60 min before i.v. bolus of 3-MPA; dose of 3-MPA required to evoke a seizure response
Experimental: Antagonism of 3-MPA-Induced Seizures
Several animal seizure models are available for the screening and characterisation of anticonvulsant (antiepileptic) drugs. Most models employ a chemical convulsant to induce seizures and the anticonvulsant potencies of novel compounds are measured in terms of their ability to increase the dose of convulsant required to induce a seizure response (or to prolong the latency to seizure onset following a bolus dose of the convulsant). Most chemical convulsants work by blocking the neurotransmitter function of gamma-aminobutyric acid (GABA), the predominant inhibitory neurotransmitter in the mammalian brain. This can be achieved by blocking the postsynaptic action of GABA using pentylenetetrazol or bicuculline, or via a presynaptic action using a GABA synthesis inhibitor to decrease GABA release into the synapse. In this case, the inhibitor of glutamate decarboxylase (GAD), 3-mercaptopropionic acid (3-MPA), was used as the convulsant challenge agent.
Male albino T/O strain mice (obtained from Tuck) weighing 28-40 g were used in these studies. Animals were assigned randomly to treatment groups and vehicle or test drug (at a dose of […]) were administered p.o. to groups of 12 animals 60 min before the administration of a bolus dose of 3-MPA intravenously. Immediately following 3-MPA administration, each mouse was placed individually into a cage for observation. The seizure response of each animal was scored quantally as present or absent (response or non-response) during the 5 min period immediately following 3-MPA administration. A seizure response was defined as the onset of the initial clonic phase of the seizure (abrupt loss of righting reflex accompanied by vocalisation). The seizure threshold (in terms of mg/kg i.v. of 3-MPA required to evoke a seizure response) was determined in each treatment group by a sequential up/down method followed by modified probit analysis of the quantal data A range of doses of 3-MPA was prepared (12.5-200.0 mg/kg i.v.) increasing by a constant geometric factor […], which was found in pilot studies to generate suitable data for analysis by this method.
In these studies, 3-MPA was obtained from Sigma
Test compounds were prepared as solutions dissolved in 45% w/v aqueous 2-hydroxypropyl-β-cyclodextrin. 3-MPA was dissolved in isotonic saline and its pH adjusted to 6 using 1M sodium hydroxide solution. Drugs were administered in a dose volume of 10 ml/kg body weight.

SMILES	Aqueous solubility at 1 mg/ml (Solubility measurement)	SC = seizure threshold after treatment with test drug (3-MPA-induced seizures) [mg/kg i.v.]	other results
C[C@@H](O)CNC(=O)N1CC(Oc2ccc(Cl)cc2)C1 (racemic) [Example 7, (R,S)-3-(4-Chlorophenoxy)-N-(2-hydroxypropyl)azetidine-1-carboximide]	–	–	anxiolytic activity (increase in the frequency of head dips) [1]: effective
C=CCNC(=O)N1CC(Oc2ccc(C(F)(F)F)cc2)C1 [3-(4-(trifluoromethyl)phenoxy)-N-(2-propenyl)azetidine-1-carboxamide]	Not soluble	–	–
CCCNC(=O)N1CC(Oc2ccc(Cl)cc2)C1 [3-(4-chlorophenoxy)-N-(propyl)azetidine-1-carboxamide]	Not soluble	–	–
NC(=O)N1CC(Oc2ccc(Cl)cc2)C1 [3-(4-chlorophenoxy)azetidine-1-carboxamide]	Not soluble	–	–
C[C@@H](O)CNC(=O)N1CC(Oc2ccc(C(C)(C)C)cc2)C1 [Example 1, (R)-3-(4-tert-Butylphenoxy)-N-(2-hydroxypropyl)azetidine-1-carboxamide]	–	154.3	melting point: 98 to 99 °C
C[C@@H](O)CNC(=O)N1CC(Oc2ccc(Cl)cc2)C1 [Example 2, (R)-3-(4-Chlorophenoxy)-N-(2-hydroxypropyl)azetidine-1-carboxamide]	Soluble	109.1	–
C[C@H](O)CNC(=O)N1CC(Oc2ccc(Cl)cc2)C1 [Example 3, (S)-3-(4-Chlorophenoxy)-N-(2-hydroxypropyl)azetidine-1-carboxamide]	–	59.5	–
CC(C)(O)CNC(=O)N1CC(Oc2ccc(Cl)cc2)C1 [Example 4, 3-(4-Chlorophenoxy)-N-(2-hydroxy-2-methylpropyl)azetidine-1-carboxamide]	–	36.9	–
C[C@@H](O)CNC(=O)N1CC(Oc2ccc(F)cc2)C1 [Example 5, (R)-3-(4-Fluorophenoxy)-N-(2-hydroxypropyl)azetidine-1-carboxamide]	–	29.8	melting point: 112 to 114 °C
C[C@@H](O)CNC(=O)N1CC(Oc2ccc(Cl)c(Cl)c2)C1 [Example 6, (R)-3-(3,4-Dichlorophenoxy)-N-(2-hydroxypropyl)azetidine-1-carboxamide]	–	59.5	–
C[C@@H](O)CNC(=O)N1CC(Oc2ccc(C(F)(F)F)cc2)C1 [Example 8]	Soluble	214.1	–
